Among the data in US20170152258A9, “Substituted Pyridopyrazines as Syk Inhibitors” (HUTCHISON MEDIPHARMA LIMITED, priority 2012, published 2017) are IC50 values, retold here.

The target in test [1] is Syk kinase (Homo sapiens, UniProt P43405). Description: SYK Enzymatic Assay (Z-LYTE Tyr 2 peptide). In kind it is biochemical. To be noted: 8 concentrations 1 μM down to 0.0003 μM. The method in brief: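 Z-LYTE format using Tyr 2 peptide. After the 1 h room-temperature kinase reaction, development reagent was added for 1 h, then stop reagent. Fluorescence was read at 445 and 520 nm. Compounds were tested at 8 concentrations, 1 μM down to 0.0003 μM (1:3 dilutions).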

Test [2] deals with RBL-2H3 cells. Nature of the test: IgE-induced Beta-hexosaminidase secretion in RBL-2H3 cells. To be noted: DNP-BSA stimulation. Type of test: cell-based. In short, it runs like this:
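RBL-2H3 cells sensitized overnight with 0.5 ug/ml SPE-7 IgE, washed, preincubated with compound 20 min at 37° C, then stimulated with DNP-BSA (150 ng/mL stock) for 45 min. Released β-hexosaminidase measured on supernatant with 1 mM 4-nitrophenyl N-acetyl-β-D-glucosaminide, pH 4.5, 1.5 hr at 37° C; absorbance 405 nm after carbonate quench.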

Setting [3] is: Rattus norvegicus, RBL-2H3, IgE-induced Beta-hexosaminidase secretion.
[4] abbreviates: IgE-induced Beta-hexosaminidase secretion.

As for `NC(=O)N1CCO[C@H](COc2nc(-c3ccc(C4CCOCC4)cc3)cc3nccnc23)C1` [Compound 241, (S)-2-(((7-(4-(tetrahydro-2H-pyran-4-yl)phenyl)pyrido[3,4-b]pyrazin-5-yl)oxy)methyl)morpholine-4-carboxamide], the IC50 (usually the concentration at which inhibition is half-maximal) turned out to be 47 nM in test [1] and 124 nM in test [2] (setting [3]).

Take `CC(Oc1nc(-c2ccc(N(C)C)cc2)cc2nccnc12)C1CN(S(N)(=O)=O)CCO1` (stereo not shown) [Compound 246]: the values for the IC50 in test [1] and in test [2] (setting [3]) were 95 nM and 44 nM, respectively.

For `CC(=O)N1CCO[C@H](COc2nc(-c3ccc(C(C)(C)C#N)cc3)cc3nccnc23)C1` [Compound 248], the IC50 in test [1] worked out at 88 nM; in test [2] (setting [3]), 54 nM.

Regarding `CNC(=O)N1CCO[C@H](COc2nc(-c3ccc(C(C)(C)C#N)cc3)cc3nccnc23)C1` [Compound 249], the IC50 in test [1] was 42 nM; in test [2] (setting [3]) it was 69 nM.

Take `CC(C)(C#N)c1ccc(-c2cc3nccnc3c(OCC3CN(S(N)(=O)=O)CCO3)n2)cc1` (stereo not shown) [Compound 250]: the IC50 in test [1] is 28 nM; in test [2] (setting [3]), 112 nM.

Consider `CNS(=O)(=O)N1CCOC(COc2nc(-c3ccc(C(C)(C)C#N)cc3)cc3nccnc23)C1` (stereo not shown) [Compound 251], for which the IC50 in test [1] worked out at 75 nM; in test [2] (setting [3]) it was 83 nM.

As for `CC(C)(C#N)c1ccc(-c2cc3nccnc3c(OC[C@@H]3CN(C(N)=O)CCO3)n2)cc1` [Compound 252], the concentration for half-maximal inhibition (IC50) in test [1] was 31 nM; in test [2] (setting [3]), 381 nM.

As for `CC(=O)N1CCO[C@H](COc2nc(-c3ccc(C(C)(C)C)cc3)cc3nccnc23)C1` [Compound 254], the IC50 in test [1] was determined as 55 nM; in test [2] (setting [3]), 99 nM.

Consider `CC(C)(C)c1ccc(-c2cc3nccnc3c(OC[C@@H]3CN(C(N)=O)CCO3)n2)cc1` [Compound 255], for which the IC50 in test [1] came to 27 nM; in test [2] (setting [3]) it was 97 nM.

On to `CC(C)(C)c1ccc(-c2cc3nccnc3c(OC[C@@H]3CN(S(C)(=O)=O)CCO3)n2)cc1` [Compound 256], for which the IC50 in test [1] amounted to 36 nM; in test [2] (setting [3]), 92 nM.

With `CC(C)(C)c1ccc(-c2cc3nccnc3c(OC[C@@H]3CN(S(N)(=O)=O)CCO3)n2)cc1` [Compound 257], the results for the IC50 in test [1] and in test [2] (setting [3]) were 63 nM and 160 nM, respectively.

`CS(=O)(=O)N1CCO[C@H](COc2nc(-c3ccc(CN4CCOCC4)cc3)cc3nccnc23)C1` [Compound 258]: the values for the 50% inhibitory concentration (IC50) in test [1] and in test [2] (setting [3]) were 81 nM and 187 nM, respectively.

As for `CC(=O)N(C)Cc1ccc(-c2cc3nccnc3c(OC[C@@H]3CN(S(C)(=O)=O)CCO3)n2)cc1` [Compound 259], the IC50 in test [1] stood at 54 nM; in test [2] (setting [3]), 297 nM.

`NS(=O)(=O)N1CCO[C@H](COc2nc(-c3ccc(C4CCOCC4)cc3)cc3nccnc23)C1` [Compound 260]: the values for the IC50 in test [1] and in test [2] (setting [3]) were 24 nM and 135 nM, respectively.

As for `CS(=O)(=O)N1CCC(c2ccc(-c3cc4nccnc4c(OC[C@@H]4CNC(=O)C4)n3)cc2)CC1` [Compound 261, (S)-4-(((7-(4-(1-(methylsulfonyl)piperidin-4-yl)phenyl)pyrido[3,4-b]pyrazin-5-yl)oxy)methyl)pyrrolidin-2-one], the IC50 in test [1] came to 52 nM; in test [2] (setting [3]) it was 418 nM.

Consider `CNS(=O)(=O)N1CCOC(COc2nc(-c3ccc(C(C)(C)O)cc3)cc3nccnc23)C1` (stereo not shown) [Compound 262], for which the results for the IC50 in test [1] and in test [2] (setting [3]) were 79 nM and 269 nM, respectively.

With `CC(C)(O)c1ccc(-c2cc3nccnc3c(OC[C@@H]3CN(S(N)(=O)=O)CCO3)n2)cc1` [Compound 263], the IC50 in test [1] is 23 nM; in test [2] (setting [3]), 400 nM.

Consider `CNC(=O)N1CCO[C@H](COc2nc(-c3ccc(C(C)(C)O)cc3)cc3nccnc23)C1` [Compound 264], for which the IC50 in test [1] amounted to 38 nM; in test [2] (setting [3]) it was 339 nM.

As for `CC(=O)N1CCO[C@H](COc2nc(-c3ccc(C(C)(C)O)cc3)cc3nccnc23)C1` [Compound 265], the IC50 amounted to 88 nM in test [1] and 166 nM in test [2] (setting [3]).

As to `CC(C)(O)c1ccc(-c2cc3nccnc3c(OC[C@@H]3CN(C(N)=O)CCO3)n2)cc1` [Compound 266], the IC50 in test [1] turned out to be 44 nM; in test [2] (setting [3]) it was 1090 nM.

For the compound `CC(=O)N1CCO[C@H](COc2nc(-c3ccc(C(C)(C)CN)cc3)cc3nccnc23)C1` [Compound 267], the results for the IC50 in test [1] and in test [2] (setting [3]) were 477 nM and 1260 nM, respectively.

For the compound `COC(C)(C)c1ccc(-c2cc3nccnc3c(OC[C@@H]3CN(S(C)(=O)=O)CCO3)n2)cc1` [Compound 268], the half-inhibitory concentration (IC50) was 18 nM in test [1] and 36 nM in test [2] (setting [3]).

`COC(C)(C)c1ccc(-c2cc3nccnc3c(OC[C@@H]3CN(C(C)=O)CCO3)n2)cc1` [Compound 269]: the IC50 in test [1] came to 91 nM; in test [2] (setting [3]), 88 nM.

`CCC(O)(CC)c1ccc(-c2cc3nccnc3c(OC[C@@H]3CN(C(C)=O)CCO3)n2)cc1` [Compound 270]: the IC50 in test [1] was determined as 179 nM; in test [2] (setting [3]) it was 185 nM.

As for `CC(C)(O)Cc1ccc(-c2cc3nccnc3c(OC[C@@H]3CN(S(C)(=O)=O)CCO3)n2)cc1` [Compound 273], the values for the IC50 in test [1] and in test [2] (setting [3]) were 85 nM and 176 nM, respectively.

Regarding `CS(=O)(=O)N1CCO[C@H](COc2nc(-c3ccc(C4(C#N)CC4)cc3)cc3nccnc23)C1` [Compound 274], the IC50 in test [1] was found to be 40 nM; in test [2] (setting [3]) it was 59 nM.

Regarding `CCC(O)(CC)c1ccc(-c2cc3nccnc3c(OC[C@@H]3CN(S(C)(=O)=O)CCO3)n2)cc1` [Compound 279], the IC50 came out at 35 nM in test [1] and 87 nM in test [2] (setting [3]).

Consider `CCC(O)(CC)c1ccc(-c2cc3nccnc3c(OC[C@@H]3CN(C(N)=O)CCO3)n2)cc1` [Compound 281], for which the IC50 stood at 65 nM in test [1] and 663 nM in test [2] (setting [3]).

For the compound `CS(=O)(=O)N1CCO[C@H](COc2nc(-c3ccc(C4(C#N)CCC4)cc3)cc3nccnc23)C1` [Compound 282], the values for the IC50 in test [1] and in test [2] (setting [3]) were 26 nM and 92 nM, respectively.

Consider `CCC(O)(CC)c1ccc(-c2cc3nccnc3c(OC[C@@H]3CN(S(N)(=O)=O)CCO3)n2)cc1` [Compound 283], for which the IC50 in test [1] came out at 44 nM; in test [2] (setting [3]), 248 nM.

As to `CC(C)(C)C(O)c1ccc(-c2cc3nccnc3c(OC[C@@H]3CN(S(C)(=O)=O)CCO3)n2)cc1` (stereo partly shown) [Compound 284], the IC50 in test [1] is 97 nM; in test [2] (setting [3]), 194 nM.

On to `CC(C)(CO)c1ccc(-c2cc3nccnc3c(OC[C@@H]3CN(S(C)(=O)=O)CCO3)n2)cc1` [Compound 288], for which the IC50 in test [1] was found to be 25 nM; in test [2] (setting [4]) it was 48 nM; in test [2] (setting [3]), 85 nM.

As for `N#CC1(c2ccc(-c3cc4nccnc4c(OC[C@@H]4CN(C(N)=O)CCO4)n3)cc2)CCC1` [Compound 290], the IC50 in test [1] stood at 50 nM; in test [2] (setting [4]), 467 nM; in test [2] (setting [3]), 374 nM.

Consider `COc1ccc(-c2cc3nccnc3c(OC[C@@H]3CN(S(N)(=O)=O)CCO3)n2)cc1OC` [Compound 292, (S)-2-(((7-(3,4-dimethoxyphenyl)pyrido[3,4-b]pyrazin-5-yl)oxy)methyl)morpholine-4-sulfonamide], for which the IC50 in test [1] was 14 nM; in test [2] (setting [3]), 232 nM.

Consider `N#CC1(c2ccc(-c3cc4nccnc4c(OC[C@@H]4CN(S(N)(=O)=O)CCO4)n3)cc2)CC1` [Compound 293], for which the IC50 in test [1] amounted to 50 nM; in test [2] (setting [3]), 241 nM.

For `N#CC1(c2ccc(-c3cc4nccnc4c(OC[C@@H]4CN(S(N)(=O)=O)CCO4)n3)cc2)CCC1` [Compound 294], the IC50 in test [1] came to 51 nM; in test [2] (setting [4]) it was 132 nM; in test [2] (setting [3]), 218 nM.

As for `CC(=O)N1CCO[C@H](COc2nc(-c3ccc4c(c3)COC4(C)C)cc3nccnc23)C1` [Compound 297], the IC50 in test [1] was determined as 58 nM; in test [2] (setting [3]), 88 nM.

Regarding `CC1(C)OCc2cc(-c3cc4nccnc4c(OC[C@@H]4CN(C(N)=O)CCO4)n3)ccc21` [Compound 298], the values for the IC50 in test [1] and in test [2] (setting [3]) were 28 nM and 191 nM, respectively.

On to `CC1(C)OCc2cc(-c3cc4nccnc4c(OC[C@@H]4CN(S(C)(=O)=O)CCO4)n3)ccc21` [Compound 299], for which the IC50 in test [1] was found to be 14 nM; in test [2] (setting [3]) it was 47 nM.

Take `CC1(C)OCCc2cc(-c3cc4nccnc4c(OC[C@@H]4CN(C(N)=O)CCO4)n3)ccc21` [Compound 301]: the values for the IC50 in test [1] and in test [2] (setting [3]) were 24 nM and 107 nM, respectively.

As for `CC1(C)OCCc2cc(-c3cc4nccnc4c(OC[C@@H]4CN(S(C)(=O)=O)CCO4)n3)ccc21` [Compound 302], the IC50 came to 9 nM in test [1] and 30 nM in test [2] (setting [3]).

As to `CS(=O)(=O)N1CCO[C@H](COc2nc(-c3ccc(C4(O)CCC4)cc3)cc3nccnc23)C1` [Compound 308], the IC50 in test [1] came to 35 nM; in test [2] (setting [3]), 97 nM.

Consider `NC(=O)N1CCO[C@H](COc2nc(-c3ccc(C4(O)CCC4)cc3)cc3nccnc23)C1` [Compound 311], for which the IC50 turned out to be 35 nM in test [1] and 620 nM in test [2] (setting [3]).

On to `NS(=O)(=O)N1CCO[C@H](COc2nc(-c3ccc(C4(O)CCC4)cc3)cc3nccnc23)C1` [Compound 312], for which the IC50 in test [1] amounted to 69 nM; in test [2] (setting [3]), 873 nM.

For `CS(=O)(=O)N1CCO[C@H](COc2nc(-c3ccc(C4(O)CCOCC4)cc3)cc3nccnc23)C1` [Compound 314], the IC50 in test [1] was 43 nM; in test [2] (setting [3]), 117 nM.

Regarding `CN1CCOC(COc2nc(-c3ccc(C4CCN(S(C)(=O)=O)CC4)cc3)cc3nccnc23)C1=O` (stereo not shown) [Compound 315], the IC50 in test [1] was 103 nM; in test [2] (setting [3]), 123 nM.

Regarding `CN1CCOC(COc2nc(-c3ccc(C(C)(C)O)cc3)cc3nccnc23)C1=O` (stereo not shown) [Compound 316], the IC50 stood at 115 nM in test [1] and 113 nM in test [2] (setting [3]).
